Results taken from article PMC8391127, “Triterpenoid–PEG Ribbons Targeting Selectivity in Pharmacological Effects” (Biomedicines, 2021).
Like-named read-outs stand apart in the source and are kept apart here. Marks after values point to notes of the source that are not given here.

Legend:
[1] = Ability to form supramolecular gel; format: physicochemical; details: 1% w/v in solvent, ultrasound 30 min, heated to boiling, cooled to r.t. 24 h
Procedure: The solutions of the studied compounds 8a, 12a, 8b, 12b, 4c, 6c, 6d, and 8d (1%, w/v) in the appropriate solvent were mixed with ultrasound for 30 min, then heated to the boiling points of the used solvents, and then allowed to cool down to the r.t. for 24 h. An example of the resulting gels that were produced from 8a, 4c, 6c, and 6d is shown in the Supplementary Material, Figure S1.

Bacillus cereus = assay: Antimicrobial screening, resazurine test; format: cell-based; details: Bacillus cereus, B. cereus, read-out: Inhibition of the microorganism; for inhibition at 25 µg/mL: c = 25 µg·mL-1; for inhibition at 50 µg/mL: c = 50 µg·mL-1; for inhibition at 100 µg/mL: c = 100 µg·mL-1
Procedure: (§1) The resazurine test was used to evaluate this activity.
(§2) The cell inoculum was made in Mueller–Hinton broth (10 mL). Colonies of cells were inoculated from the solid medium that was cultivated for 24 h under optimum conditions. A part of the inoculum was diluted to get suspension with an optical density 0.6 to 0.9 McF. An aliquot amount (1 mL) was taken and diluted with additional volume of the medium (19 mL). The stored solutions of the tested compounds were made at a concentration c = 200 µg.mL^−1. The stored suspensions of the cells, MHB medium, solutions of the antibiotics specific for the given bacteria (vancomycin for S. aureus and E. faecalis, kanamycin for E. coli and P. aeruginosa, and tetracycline for B. cereus), and the solutions of the compounds were pipetted into the microtitration plates. Subsequently, a concentration sequence of the tested compounds was made (c = 100, 50, and 25 µg.mL^−1). The content of the microtitration plates was cultivated for 24 h under optimum conditions for the given bacteria. A solution of resazurine was made, based on a dilution of its stored solution (c = 0.15 mg.mL^−1; 2 mL) into the MHB medium (18 mL). Then, it was pipetted into the microtitration plates that were cultivated for an additional 1 h. Finally, fluorescence measurement (excitation at 560 nm, emission at 590 nm) was made, and the inhibition of the bacterium was determined.
(§3) 2. Antimicrobial screening tests
(§4) Antimicrobial activity of the target molecular ribbons 8a, 12a, 8b, 12b, 4c, 6c, 6d and 8d, and […]
(§5) aeruginosa, Staphylococcus aureus and Enterococcus faecalis. The resazurine test was used to […]
(§6) ribbons which have been achieved in this investigation.
(§7) Table S1. Antimicrobial activity, inhibition of the microorganism [%]
(§8) Comp. Staphylococcus aureus Comp. Escherichia coli […]
(§9) µg·mL-1 µg·mL-1 µg·mL-1 µg·mL-1 µg·mL-1 µg·mL-1
(§10) Comp. Bacillus cereus Comp. Pseudomonas aeruginosa

Staphylococcus aureus = assay: Antimicrobial screening, resazurine test; format: cell-based; details: S. aureus; for inhibition at 25 µg/mL / inhibition at 50 µg/mL / inhibition at 100 µg/mL: Staphylococcus aureus, read-out: Inhibition of the microorganism; for inhibition at 50 µg/mL: c = 50 µg·mL-1; for inhibition at 100 µg/mL: c = 100 µg·mL-1
Procedure: as §1, §2, §3, §4, §5, §6, §7, §8, §9, §10

Escherichia coli = assay: Antimicrobial screening, resazurine test; format: cell-based; details: E. coli; for inhibition at 25 µg/mL / inhibition at 50 µg/mL / inhibition at 100 µg/mL: Escherichia coli, read-out: Inhibition of the microorganism; for inhibition at 50 µg/mL: c = 50 µg·mL-1; for inhibition at 100 µg/mL: c = 100 µg·mL-1
Procedure: as §1, §2, §3, §4, §5, §6, §7, §8, §9, §10

Pseudomonas aeruginosa = assay: Antimicrobial screening, resazurine test; format: cell-based; details: P. aeruginosa; for inhibition at 25 µg/mL: c = 25 µg·mL-1, read-out: Inhibition of the microorganism; for inhibition at 50 µg/mL: c = 50 µg·mL-1, read-out: Inhibition of the microorganism; for inhibition at 100 µg/mL: c = 100 µg·mL-1, read-out: Inhibition of the microorganism
Procedure: as §1, §2, §3, §4, §5, §6, §7, §8, §9, §10

Enterococcus faecalis = assay: Antimicrobial screening, resazurine test; format: cell-based; details: E. faecalis; for inhibition at 25 µg/mL / inhibition at 50 µg/mL / inhibition at 100 µg/mL: Enterococcus faecalis, read-out: Inhibition of the microorganism; for inhibition at 50 µg/mL: c = 50 µg·mL-1; for inhibition at 100 µg/mL: c = 100 µg·mL-1
Procedure: as §1, §2, §3, §4, §5, §6, §7, §8, §9, §10

[2] = Cytotoxicity screening test, reference cells; format: cell-based; details: BJ foreskin fibroblasts; BJ human fibroblasts
Description: (§11) Description of the experimental procedure used in the cytotoxicity screening test was already published. The following cancer cell lines were used in the investigation: T-lymphoblastic leukemia, CEM; breast carcinoma, MCF7; cervical carcinoma, HeLa; and malignant melanoma, G-361. Human foreskin fibroblasts, BJ, were used as reference cells. All of the above cell lines were obtained from the American Type Culture Collection (Manassas, VA, USA). African green monkey kidney Vero cells were obtained from the European Collection of Cell Cultures (Salisbury, UK) and human T-cell leukemia MT-4 cells were obtained through the NIH AIDS Reagent Program, Division of AIDS, NIAID, NIH, from Dr. Douglas Richman. All cells, but MT-4 cells, were cultured in DMEM (Dulbecco’s Modified Eagle Medium, Sigma, St. Louis, MO, USA). MT-4 cells were maintained in RPMI1640 medium. Media used were supplemented with 10% fetal bovine serum, 2 mM L-glutamine, and 1% penicillin–streptomycin (all Sigma, St. Louis, MO, USA). The cell lines were maintained under standard cell culture conditions at 37 °C and 5% CO2 in a humid environment. Cells were subcultured twice or three times a week using the standard trypsinization procedure.

[3] = Self-assembly by UV-VIS spectrometry in methanol/water mixtures; format: physicochemical; details: 0-140 h
Procedure: The self-assembly of the selected compounds 8a, 12a, 8b, 12b, 4c, 6c, 6d, and 8d was measured using UV absorption in methanol/water mixtures with a constant concentration of the studied compound for 7 days in one-hour intervals on the first day, and in 24 h intervals all following days. The stock solutions of the studied compounds were prepared at a concentration of 1 mg·mL^−1 in water. Then, a series of methanol/water mixtures were prepared starting from a methanol/water ratio 100/0 down to 0/100 in 20% steps. The stock solutions of the studied compounds (0.15 mL) were added separately to each vial containing methanol/water mixtures (3 mL), and the UV spectra were recorded in the wavelength range of 200–400 nm. […] For the compounds 8a, 12a, 12b and 6d, the details are presented in the Supplementary Material; see Figure S2.
Supramolecular self-assembly was studied on the basis of the UV-VIS spectra of the compounds in several methanol/water mixtures stepwise during the time interval 0-140 h. Here we show compounds 8a, 12a, 12b and 6d as examples, with which the irregularities in the UV-VIS spectra were either well pronounced (8a and 12a; Figure S2), or no substantial irregularity was detected (12b and 6d).
Figure S2. UV-VIS spectra of 8a (top) and 12a (bottom) measured in the interval 0-140 h.
During that time interval a new maximum appeared at 300 nm wavelength, and the shape of the curves is different than in any of the other intervals of measurement. […]

[4] = Cytotoxicity screening test; format: cell-based; details: human
Description: as §11

[5] = system: HIV-1 (laboratory strain NL4-3); assay: microbe, parasite or virus in culture; format: cell-based
Procedure: The cell lines were maintained under standard cell culture conditions at 37 °C and 5% CO2 in a humid environment. Cells were subcultured twice or three times a week using the standard trypsinization procedure.

| Structure (SMILES) | Gel formation [1] | inhibition at 25 µg/mL (Bacillus cereus) | inhibition at 50 µg/mL (Bacillus cereus) | inhibition at 100 µg/mL (Bacillus cereus) | inhibition at 25 µg/mL (Staphylococcus aureus; c = 25 µg·mL-1) | inhibition at 50 µg/mL (Staphylococcus aureus) | inhibition at 100 µg/mL (Staphylococcus aureus) | inhibition at 25 µg/mL (Escherichia coli; c = 25 µg·mL-1) | inhibition at 50 µg/mL (Escherichia coli) | inhibition at 100 µg/mL (Escherichia coli) | inhibition at 25 µg/mL (Pseudomonas aeruginosa) | inhibition at 50 µg/mL (Pseudomonas aeruginosa) | inhibition at 100 µg/mL (Pseudomonas aeruginosa) | inhibition at 25 µg/mL (Enterococcus faecalis; c = 25 µg·mL-1) | inhibition at 50 µg/mL (Enterococcus faecalis) | inhibition at 100 µg/mL (Enterococcus faecalis) | Irregularity in UV-VIS spectra (self-assembly) [3] | also measured |
| --- | --- | --- | --- | --- | --- | --- | --- | --- | --- | --- | --- | --- | --- | --- | --- | --- | --- | --- |
| CC1(C)C=C2[C@H]3CC[C@@H]4[C@@]5(C)CCC(=O)C(C)(C)[C@@H]5CC[C@@]4(C)[C@]3(C)CC[C@@]2(C(=O)NCCOCCOCCOCCn2cc(COC(=O)[C@]34CCC(C)(C)C=C3[C@H]3CC[C@@H]5[C@@]6(C)CCC(=O)C(C)(C)[C@@H]6CC[C@@]5(C)[C@]3(C)CC4)nn2)CC1 [4c] | produced a gel in glycerol | 2 ± 0.3% | 0 to 1% | 6 ± 9% | 11 ± 1.7% | 66 ± 9.9% | 76 ± 11.4% | 25 ± 3.8% | 34 ± 5.1% | 31 ± 4.7% | 50 ± 7.5% | 47 ± 7% | 46 ± 6.8% | > 62% | 50 ± 7.5% | 43 ± 6.5% | – | Inhibition of the microorganism (Enterococcus faecalis; c = 25 µg·mL-1): 62 ± 9.3 ^e % |
| CC1(C)C=C2[C@H]3CC[C@@H]4[C@@]5(C)CCC(=O)C(C)(C)[C@@H]5CC[C@@]4(C)[C@]3(C)CC[C@@]2(C(=O)NCCOCCOCCOCCn2cc(CO[C@H]3CC[C@]4(C)[C@H]5CC=C6C7CC(C)(C)CC[C@]7(C(=O)O)CC[C@@]6(C)[C@]5(C)CC[C@H]4C3(C)C)nn2)CC1 (stereo partly shown) [6c] | produced a gel in glycerol | 7 ± 1% | 19 ± 2.9% | 13 ± 2% | 13 ± 2% | 51 ± 7.7% | 27 ± 4% | 10 ± 1.5% | 18 ± 2.7% | 30 ± 4.5% | 12 ± 1.8% | 69 ± 10.4% | 60 ± 9% | 0 to 1% | 25 ± 3.8% | 36 ± 5.4% | – | – |
| CC1(C)C=C2C3CC[C@@H]4[C@@]5(C)CC[C@H](OCc6cn(CCOCCOCCOCCNC(=O)[C@]78CCC(C)(C)C=C7[C@H]7CC[C@@H]9[C@@]%10(C)CCC(=O)C(C)(C)[C@@H]%10CC[C@@]9(C)[C@]7(C)CC8)nn6)C(C)(C)[C@@H]5CC[C@@]4(C)[C@]3(C)CC[C@@]2(C(=O)O)CC1 (stereo partly shown) [6d] | produced a gel in glycerol | 1 ± 0.2% | 0 to 1% | 3 ± 0.5% | 25 ± 3.8% | 31 ± 4.7% | 0 to 1% | 9 ± 1.4% | 13 ± 2% | 0 to 1% | 0 to 1% | 0 to 1% | 0 to 1% | 2 ± 0.3% | 14 ± 2.1% | 28 ± 4.2% | No substantial irregularity was detected | IC50 [2]: > 50 µM; IC50 ([4]; CEM T-lymphoblastic leukemia cells): > 50 µM; IC50 ([4]; G-361 malignant melanoma cells): 20 ± 0.6 µM; IC50 ([4]; HeLa cervical carcinoma cells): > 50 µM; IC50 ([4]; MCF7 breast carcinoma cells): > 50 µM |
| CC1(C)CC[C@]2(C(=O)O)CC[C@]3(C)C(=CC[C@@H]4[C@@]5(C)CC[C@H](OCc6cn(CCOCCOCCOCCNC(=O)[C@]78CCC(C)(C)CC7C7=CC[C@@H]9[C@@]%10(C)CC[C@H](O)C(C)(C)[C@@H]%10CC[C@@]9(C)[C@]7(C)CC8)nn6)C(C)(C)[C@@H]5CC[C@]43C)C2C1 (stereo partly shown) [8a] | produced a gel in ethylene glycol | 0 to 1% | 0 to 1% | 0 to 1% | > 50% | 55 ± 8.3% | 68 ± 10.2% | > 50% | 24 ± 3.6% | 0 to 1% | 21 ± 3.2% | 17 ± 2.6% | 14 ± 2.1% | 17 ± 2.6% | 28 ± 4.2% | 32 ± 4.8% | Irregularity was detected | Inhibition of the microorganism (Staphylococcus aureus; c = 25 µg·mL-1): 52 ± 7.8 ^e %; Inhibition of the microorganism (Escherichia coli; c = 25 µg·mL-1): 51 ± 7.7 ^e %; EC50 ([5]; Human immunodeficiency virus 1, NL43, MT4, HIV-1 NL4-3 in MT-4 cells, read-out: EC50 ± SE against HIV-1): 50.6 ± 7.8 µM |
| CC(C)OC(=O)[C@H](C)N[P@](=O)(CO[C@H](C)Cn1cnc2c(N)ncnc21)Oc1ccccc1 [tenofovir alafenamide, Tenofovir alafenamide, reference compound] | – | – | – | – | – | – | – | – | – | – | – | – | – | – | – | – | – | EC50 ([5]; Human immunodeficiency virus 1, NL43, MT4, read-out: EC50 ± SE against HIV-1): 0.0097 ± 0.0023 µM |
